Experimental data from the NIST ThermoML archive (doi:10.1021/je400679k).
Numbers after ± are expanded uncertainties.

What was measured:
[1] = xn = mol fraction of the nth substance listed; settings: 101 kPa, Liquid, Vibrating tube method, x2 = 0
[2] = 101 kPa, Liquid, Vibrating tube method

SMILES | mass density ([1]; 283.15 K) [kg/m3] | mass density ([1]; 293.15 K) [kg/m3] | mass density ([1]; 303.15 K) [kg/m3] | mass density ([1]; 313.15 K) [kg/m3] | mass density ([1]; 323.15 K) [kg/m3] | mass density ([1]; 333.15 K) [kg/m3] | mass density ([1]; 343.15 K) [kg/m3] | mass density ([1]; 353.15 K) [kg/m3] | mass density ([1]; 363.15 K) [kg/m3] | mass density ([2]; 283.15 K) [kg/m3] | mass density ([2]; 293.15 K) [kg/m3] | mass density ([2]; 303.15 K) [kg/m3] | mass density ([2]; 313.15 K) [kg/m3] | mass density ([2]; 323.15 K) [kg/m3] | mass density ([2]; 333.15 K) [kg/m3] | mass density ([2]; 343.15 K) [kg/m3] | mass density ([2]; 353.15 K) [kg/m3] | mass density ([2]; 363.15 K) [kg/m3]
CN(C)CCO [2-(N,N-dimethylamino)ethanol] + CNCCCN | 894.959 ± 0.11 | 886.56 ± 0.12 | 878.059 ± 0.12 | 869.428 ± 0.12 | 860.655 ± 0.12 | 851.72 ± 0.13 | 842.604 ± 0.13 | 833.288 ± 0.13 | 823.754 ± 0.14 | – | – | – | – | – | – | – | – | –
CN(C)CCO [2-(N,N-dimethylamino)ethanol] | – | – | – | – | – | – | – | – | – | 894.959 ± 0.11 | 886.56 ± 0.12 | 878.059 ± 0.12 | 869.428 ± 0.12 | 860.655 ± 0.12 | 851.72 ± 0.13 | 842.604 ± 0.13 | 833.288 ± 0.13 | 823.754 ± 0.14
CN(CCO)CCO [N-methyldiethanolamine] + CNCCCN | – | 1040.06 ± 0.92 | 1032.47 ± 0.9 | 1024.86 ± 0.89 | 1017.21 ± 0.87 | 1009.51 ± 0.86 | 1001.73 ± 0.84 | 993.889 ± 0.83 | 985.958 ± 0.82 | – | – | – | – | – | – | – | – | –
O [water] | – | – | – | – | – | – | – | – | – | 999.701 ± 0.033 | – | – | – | – | 983.197 ± 0.041 | 977.76 ± 0.043 | 971.788 ± 0.046 | 965.305 ± 0.048
CN(CCO)CCO [N-methyldiethanolamine] | – | – | – | – | – | – | – | – | – | – | 1040.06 ± 0.92 | 1032.47 ± 0.9 | 1024.86 ± 0.89 | 1017.21 ± 0.87 | 1009.51 ± 0.86 | 1001.73 ± 0.84 | 993.889 ± 0.83 | 985.958 ± 0.82
CCN(CC)CCO [(diethylamino)ethanol] | – | – | – | – | – | – | – | – | – | 894.423 ± 0.23 | 885.356 ± 0.23 | 876.155 ± 0.23 | 866.828 ± 0.23 | 857.388 ± 0.23 | 847.839 ± 0.23 | 838.157 ± 0.23 | 828.488 ± 0.23 | 818.597 ± 0.24
O [water] + CNCCCN | 999.701 ± 0.033 | – | – | – | – | 983.197 ± 0.041 | 977.76 ± 0.043 | 971.788 ± 0.046 | 965.305 ± 0.048 | – | – | – | – | – | – | – | – | –
CNCCCN [N-methyl-1,3-diaminopropane] | – | – | – | – | – | – | – | – | – | 860.459 ± 0.68 | 851.605 ± 0.67 | 842.69 ± 0.67 | 833.715 ± 0.66 | 824.673 ± 0.65 | 815.559 ± 0.64 | 806.37 ± 0.63 | 797.093 ± 0.62 | 787.723 ± 0.61
CCN(CC)CCO [(diethylamino)ethanol] + CNCCCN | 894.423 ± 0.23 | 885.356 ± 0.23 | 876.155 ± 0.23 | 866.828 ± 0.23 | 857.388 ± 0.23 | 847.839 ± 0.23 | 838.157 ± 0.23 | 828.488 ± 0.23 | 818.597 ± 0.24 | – | – | – | – | – | – | – | – | –
